Reference: ChEMBL document CHEMBL1154363, “Heterocyclic 1,7-disubstituted indole sulfonamides are potent and selective human EP3 receptor antagonists” (Bioorg Med Chem Lett, 2009)
Activity calls are given as the source filed them. No cut-off for these calls is given here.

Legend:
[1] = biological target: T1, Prostaglandin E2 receptor EP3 subtype (Homo sapiens, UniProt P43115); assay: Displacement of [3H]PGE2 from human EP3 receptor
T1 sequence (P43115 whole entry): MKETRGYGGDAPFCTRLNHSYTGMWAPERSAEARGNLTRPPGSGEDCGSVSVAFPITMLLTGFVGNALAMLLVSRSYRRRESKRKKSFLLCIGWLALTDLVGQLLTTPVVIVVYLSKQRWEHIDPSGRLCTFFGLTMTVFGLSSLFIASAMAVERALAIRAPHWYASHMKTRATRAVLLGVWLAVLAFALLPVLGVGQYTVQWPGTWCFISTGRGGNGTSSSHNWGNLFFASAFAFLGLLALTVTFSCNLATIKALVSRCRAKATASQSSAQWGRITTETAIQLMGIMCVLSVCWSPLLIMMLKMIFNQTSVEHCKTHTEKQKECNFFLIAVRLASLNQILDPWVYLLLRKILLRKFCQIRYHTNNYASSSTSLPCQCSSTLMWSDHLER

[2] = biological target: T2, Prostaglandin E2 receptor EP3 subtype (Homo sapiens) (UniProt P43115); assay: Displacement of [3H]PGE2 from human EP3 receptor in presence of 10% human serum
T2 sequence (whole entry): T1 sequence (P43115 whole entry)

[3] = Protein binding in plasma by HSA-HPLC method; type: ADME, cell-free; conditions: human, read-out: PB (converted)
[4] = Metabolic stability in rat liver microsomes assessed as compound remaining after 30 mins; type: ADME, Microsome; conditions: read-out: Stability
[5] = Metabolic stability in human liver microsomes assessed as compound remaining after 30 mins; type: ADME, Microsome; conditions: read-out: Stability
Platelet [6] = assay: Inhibition of PGE2/collagen-induced platelet aggregation rat platelets rich plasma; type: functional
Platelet [7] = assay: Inhibition of PGE2/collagen-induced platelet aggregation human platelets rich plasma; type: functional
[8] = biological target: T3, Prostaglandin E2 receptor EP1 subtype (Homo sapiens, UniProt P34995); assay: Binding affinity to human EP1 receptor by radioligand displacement assay
T3 sequence (P34995 whole entry): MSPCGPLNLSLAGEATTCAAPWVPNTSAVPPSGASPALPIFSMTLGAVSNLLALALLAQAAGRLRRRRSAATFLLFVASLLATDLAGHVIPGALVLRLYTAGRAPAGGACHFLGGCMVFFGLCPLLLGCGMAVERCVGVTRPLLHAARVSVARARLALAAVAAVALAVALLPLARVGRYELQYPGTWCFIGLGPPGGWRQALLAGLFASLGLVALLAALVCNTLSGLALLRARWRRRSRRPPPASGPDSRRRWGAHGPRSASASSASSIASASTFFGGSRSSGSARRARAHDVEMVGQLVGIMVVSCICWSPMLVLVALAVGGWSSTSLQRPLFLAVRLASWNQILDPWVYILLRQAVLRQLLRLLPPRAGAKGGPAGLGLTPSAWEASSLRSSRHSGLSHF

[9] = biological target: Prostaglandin E2 receptor EP2 subtype (Homo sapiens, UniProt P43116); assay: Binding affinity to human EP2 receptor by radioligand displacement assay
[10] = biological target: T4, Prostaglandin E2 receptor EP4 subtype (Homo sapiens, UniProt P35408); assay: Binding affinity to human EP4 receptor by radioligand displacement assay
[11] = biological target: T5, Prostaglandin F2-alpha receptor (Homo sapiens, UniProt P43088); assay: Binding affinity to human FP receptor by radioligand displacement assay
Prostacyclin receptor = Prostacyclin receptor (Homo sapiens, UniProt P43119); assay: Binding affinity to human IP receptor by radioligand displacement assay
[12] = biological target: T2, Prostaglandin E2 receptor EP3 subtype (Homo sapiens); assay: Antagonist activity at human EP3 receptor at 1 uM by FLIPR assay; type: functional; set-up: scale not given: the % may be the effect or the level left
[13] = biological target: T2, Prostaglandin E2 receptor EP3 subtype (Homo sapiens); assay: Antagonist activity at human EP3 receptor at 0.1 uM by FLIPR assay; type: functional; set-up: scale not given: the % may be the effect or the level left
[14] = biological target: T2, Prostaglandin E2 receptor EP3 subtype (Homo sapiens); assay: Antagonist activity at human EP3 receptor at 10 uM by FLIPR assay; type: functional; set-up: scale not given: the % may be the effect or the level left
[15] = biological target: T6, Prostaglandin E2 receptor EP1 subtype (Homo sapiens) (UniProt P34995); assay: Activity at EP1 receptor at 10 uM by FLIPR assay
T6 sequence (whole entry): T3 sequence (P34995 whole entry)

[16] = biological target: T6, Prostaglandin E2 receptor EP1 subtype (Homo sapiens); assay: Activity at EP1 receptor at 1 uM by FLIPR assay
[17] = biological target: T6, Prostaglandin E2 receptor EP1 subtype (Homo sapiens); assay: Activity at EP1 receptor at 0.1 uM by FLIPR assay
[18] = biological target: T4, Prostaglandin E2 receptor EP4 subtype; assay: Activity at EP4 receptor at 10 uM by FLIPR assay
[19] = biological target: T4, Prostaglandin E2 receptor EP4 subtype; assay: Activity at EP4 receptor at 1 uM by FLIPR assay
[20] = biological target: T4, Prostaglandin E2 receptor EP4 subtype; assay: Activity at EP4 receptor at 0.1 uM by FLIPR assay
[21] = biological target: T5, Prostaglandin F2-alpha receptor; assay: Activity at FP receptor at 10 uM by FLIPR assay
[22] = biological target: T5, Prostaglandin F2-alpha receptor; assay: Activity at FP receptor at 1 uM by FLIPR assay
[23] = biological target: T5, Prostaglandin F2-alpha receptor; assay: Activity at FP receptor at 0.1 uM by FLIPR assay
[24] = biological target: T7, Thromboxane A2 receptor (Homo sapiens) (UniProt P21731); assay: Activity at TP receptor at 10 uM by FLIPR assay
T7 sequence (whole entry): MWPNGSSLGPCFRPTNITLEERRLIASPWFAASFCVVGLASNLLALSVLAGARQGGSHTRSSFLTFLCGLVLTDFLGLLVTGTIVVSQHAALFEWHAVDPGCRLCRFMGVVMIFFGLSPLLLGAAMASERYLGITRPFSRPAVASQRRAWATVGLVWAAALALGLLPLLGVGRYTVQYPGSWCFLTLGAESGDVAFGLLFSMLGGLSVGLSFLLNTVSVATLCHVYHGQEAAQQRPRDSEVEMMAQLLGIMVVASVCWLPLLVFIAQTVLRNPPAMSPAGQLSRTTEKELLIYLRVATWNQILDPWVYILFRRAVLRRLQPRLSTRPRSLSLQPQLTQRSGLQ

[25] = biological target: T7, Thromboxane A2 receptor (Homo sapiens); assay: Activity at TP receptor at 1 uM by FLIPR assay
[26] = biological target: T7, Thromboxane A2 receptor (Homo sapiens); assay: Activity at TP receptor at 0.1 uM by FLIPR assay
[27] = biological target: T2, Prostaglandin E2 receptor EP3 subtype (Homo sapiens); assay: Full displacement of [3H]PGE2 from human EP3 receptor at 20 uM

T4 sequence (P35408 whole entry): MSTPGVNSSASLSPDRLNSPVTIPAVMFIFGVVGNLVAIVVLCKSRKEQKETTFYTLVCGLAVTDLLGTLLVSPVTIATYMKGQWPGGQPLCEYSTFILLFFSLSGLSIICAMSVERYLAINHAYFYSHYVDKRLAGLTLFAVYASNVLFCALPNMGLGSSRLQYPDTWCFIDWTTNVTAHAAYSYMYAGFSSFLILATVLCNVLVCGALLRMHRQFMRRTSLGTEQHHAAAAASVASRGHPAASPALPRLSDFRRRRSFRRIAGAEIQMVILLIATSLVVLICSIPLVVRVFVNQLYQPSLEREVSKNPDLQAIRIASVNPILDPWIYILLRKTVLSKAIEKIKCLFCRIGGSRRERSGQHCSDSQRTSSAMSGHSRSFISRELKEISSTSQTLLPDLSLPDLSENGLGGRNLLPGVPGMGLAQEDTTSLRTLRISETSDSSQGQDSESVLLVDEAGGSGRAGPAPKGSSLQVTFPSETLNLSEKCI
T5 sequence (P43088 whole entry): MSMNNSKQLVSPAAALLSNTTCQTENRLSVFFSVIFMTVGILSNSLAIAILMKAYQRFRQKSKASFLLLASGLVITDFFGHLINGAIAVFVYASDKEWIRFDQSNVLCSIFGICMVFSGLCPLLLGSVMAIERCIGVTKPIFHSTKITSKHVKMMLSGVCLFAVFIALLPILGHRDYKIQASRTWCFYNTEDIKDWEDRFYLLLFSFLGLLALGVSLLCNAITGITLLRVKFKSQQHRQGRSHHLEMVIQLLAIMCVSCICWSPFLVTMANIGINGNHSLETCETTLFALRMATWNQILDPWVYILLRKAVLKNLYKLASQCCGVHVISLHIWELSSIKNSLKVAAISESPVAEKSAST
Chain of Prostaglandin E2 receptor EP2 subtype (P43116 whole entry): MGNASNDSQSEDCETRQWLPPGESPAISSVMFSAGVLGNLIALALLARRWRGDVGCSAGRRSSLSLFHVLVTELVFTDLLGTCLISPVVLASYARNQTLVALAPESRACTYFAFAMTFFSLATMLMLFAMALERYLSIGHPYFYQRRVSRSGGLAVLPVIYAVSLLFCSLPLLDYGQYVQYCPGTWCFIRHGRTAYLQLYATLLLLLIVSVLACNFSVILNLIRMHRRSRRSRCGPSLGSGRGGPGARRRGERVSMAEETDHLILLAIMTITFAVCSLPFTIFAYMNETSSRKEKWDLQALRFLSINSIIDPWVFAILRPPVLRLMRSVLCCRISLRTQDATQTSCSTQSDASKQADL
Chain of Prostacyclin receptor (P43119 whole entry): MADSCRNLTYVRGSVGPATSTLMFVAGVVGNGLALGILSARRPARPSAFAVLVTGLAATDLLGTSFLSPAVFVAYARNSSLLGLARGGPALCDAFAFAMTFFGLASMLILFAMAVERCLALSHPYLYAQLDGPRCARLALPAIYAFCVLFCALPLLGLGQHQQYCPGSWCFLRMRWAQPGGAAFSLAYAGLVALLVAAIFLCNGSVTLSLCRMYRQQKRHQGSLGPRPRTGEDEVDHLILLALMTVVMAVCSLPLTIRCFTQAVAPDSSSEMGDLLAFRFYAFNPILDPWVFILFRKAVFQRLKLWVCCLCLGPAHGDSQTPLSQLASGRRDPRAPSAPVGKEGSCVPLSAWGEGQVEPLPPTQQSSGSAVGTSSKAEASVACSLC

SMILES: Cc1cn(Cc2ccc(Cl)cc2Cl)c2c(-c3cc(NS(=O)(=O)c4ccc(F)c(F)c4)no3)cc(F)cc12
- IC50 [1]: 0.001 µM
- fold change (FC) [2]: 12
- fraction unbound [3]: 0.016
- remaining at 0.5 h [4]: 51%
- remaining at 0.5 h [5]: 46.8%
- IC50 (Platelet [6]): 3.85 µM
- IC50 (Platelet [7]): 0.785 µM
- IC50 [8]: > 20 µM
- IC50 [9]: 19.8 µM
- IC50 [10]: 18.6 µM
- IC50 [11]: 0.6 µM
- IC50 (Prostacyclin receptor): > 20 µM

SMILES: COc1ccc(Cn2cc(C)c3cc(F)cc(-c4nnc(NS(=O)(=O)c5ccc(F)c(F)c5)o4)c32)cc1
- Activity [12]: 99%
- Activity [13]: 35%

SMILES: Cc1cn(Cc2ccc3c(c2)OCCO3)c2c(-c3nnc(NS(=O)(=O)c4ccc(F)cc4)o3)cc(F)cc12
- Activity [13]: 11%
- Activity [14]: 48%

SMILES: Cc1cn(Cc2ccc(Cl)cc2Cl)c2c(-c3nnc(NS(=O)(=O)c4ccc(Cl)c(Cl)c4)o3)cc(F)cc12
- IC50 [1]: 0.004 µM
- fold change (FC) [2]: 3.5
- fraction unbound [3]: 0.028
- remaining at 0.5 h [4]: 44.8%
- remaining at 0.5 h [5]: 72.1%
- IC50 (Platelet [6]): 2.86 µM
- Activity [15]: 100%
- Activity [16]: 16%
- Activity [17]: -2%
- Activity [18]: -7%
- Activity [19]: -22%
- Activity [20]: -26%
- Activity [21]: -1%
- Activity [22]: -2%
- Activity [23]: -15%
- Activity [24]: 56%
- Activity [25]: 0%
- Activity [26]: 3%

SMILES: Cc1cn(Cc2ccc(Cl)cc2Cl)c2c(-c3nnc(NC(=O)c4ccc(Cl)cc4Cl)o3)cc(F)cc12
- Activity [27]: inactive
- IC50 [1]: 1.32 µM
- fold change (FC) [2]: 1

SMILES: COc1cccc(Cn2cc(C)c3cc(F)cc(-c4nnc(NS(=O)(=O)c5ccc(F)cc5)o4)c32)c1
- Activity [13]: 62%
- Activity [14]: 99%
